Test results as given in patent US20140296216A1, “PYRIMIDO[4,5-D]PYRIMIDINYL COMPOUNDS, PHARMACEUTICAL COMPOSITIONS AND USES THEREOF” (GUANGZHOU INSTITUTE OF BIOMEDICINE AND HEALTH, CHINESE …, priority 2011, published 2014).

What was measured:
Type in all cases: biochemical
EGFRL858R = EGFRL858R (Homo sapiens, UniProt P00533, L858R); test: In vitro enzymatic activity assay (Z'-LYTE), EGFR L858R; conditions: Z'-LYTE FRET peptide assay; read-out: EGFRL858R kinase activity (IC50)
Source text: (§1) In vitro enzymatic activity assay: using Z′-LYTE™ technology (detect fluorescence, coupled-enzyme format, based on the differential sensitivity of phosphorylated and non-phosphorylated peptides to proteolytic cleavage), based on FRET, using Z′ LYTE™ FRET peptide substrate, detect the activity of compounds against enzymatic. […] After one hour, site specific protease which can recognize and cleaves non-phosphorylated FRET-peptide. After another hour, using an excitation wavelength of 400 nm excites, then detect the […] at 445 nm and 520 nm.

EGFRL861Q = EGFRL861Q (Homo sapiens, UniProt P00533, L861Q); test: In vitro enzymatic activity assay (Z'-LYTE), EGFR L861Q; conditions: Z'-LYTE FRET peptide assay; read-out: EGFRL861Q kinase activity (IC50)
Source text: as §1

EGFRL858R + T790M = EGFRL858R + T790M (Homo sapiens, UniProt P00533, L858R/T790M); test: In vitro enzymatic activity assay (Z'-LYTE), EGFR L858R + T790M; conditions: Z'-LYTE FRET peptide assay; read-out: EGFRL858R + T790M kinase activity (IC50)
Source text: as §1

EGFRWT = EGFRWT (Homo sapiens, UniProt P00533); test: In vitro enzymatic activity assay (Z'-LYTE), wild type EGFR; conditions: Z'-LYTE FRET peptide assay; read-out: EGFRWT kinase activity (IC50)
Source text: as §1

EGFR T790M kinase = target: T1, EGFR T790M kinase (Homo sapiens, UniProt P00533, T790M); test: In vitro enzymatic activity assay (Z'-LYTE), EGFR T790M; conditions: Z'-LYTE FRET peptide assay; read-out: EGFRT790M kinase activity (IC50)
T1 construct: purchased invitrogen PV4803
Source text: as §1

Measured: IC50

Chain of EGFRL858R + T790M (P00533 25-1210 T790M/L858R): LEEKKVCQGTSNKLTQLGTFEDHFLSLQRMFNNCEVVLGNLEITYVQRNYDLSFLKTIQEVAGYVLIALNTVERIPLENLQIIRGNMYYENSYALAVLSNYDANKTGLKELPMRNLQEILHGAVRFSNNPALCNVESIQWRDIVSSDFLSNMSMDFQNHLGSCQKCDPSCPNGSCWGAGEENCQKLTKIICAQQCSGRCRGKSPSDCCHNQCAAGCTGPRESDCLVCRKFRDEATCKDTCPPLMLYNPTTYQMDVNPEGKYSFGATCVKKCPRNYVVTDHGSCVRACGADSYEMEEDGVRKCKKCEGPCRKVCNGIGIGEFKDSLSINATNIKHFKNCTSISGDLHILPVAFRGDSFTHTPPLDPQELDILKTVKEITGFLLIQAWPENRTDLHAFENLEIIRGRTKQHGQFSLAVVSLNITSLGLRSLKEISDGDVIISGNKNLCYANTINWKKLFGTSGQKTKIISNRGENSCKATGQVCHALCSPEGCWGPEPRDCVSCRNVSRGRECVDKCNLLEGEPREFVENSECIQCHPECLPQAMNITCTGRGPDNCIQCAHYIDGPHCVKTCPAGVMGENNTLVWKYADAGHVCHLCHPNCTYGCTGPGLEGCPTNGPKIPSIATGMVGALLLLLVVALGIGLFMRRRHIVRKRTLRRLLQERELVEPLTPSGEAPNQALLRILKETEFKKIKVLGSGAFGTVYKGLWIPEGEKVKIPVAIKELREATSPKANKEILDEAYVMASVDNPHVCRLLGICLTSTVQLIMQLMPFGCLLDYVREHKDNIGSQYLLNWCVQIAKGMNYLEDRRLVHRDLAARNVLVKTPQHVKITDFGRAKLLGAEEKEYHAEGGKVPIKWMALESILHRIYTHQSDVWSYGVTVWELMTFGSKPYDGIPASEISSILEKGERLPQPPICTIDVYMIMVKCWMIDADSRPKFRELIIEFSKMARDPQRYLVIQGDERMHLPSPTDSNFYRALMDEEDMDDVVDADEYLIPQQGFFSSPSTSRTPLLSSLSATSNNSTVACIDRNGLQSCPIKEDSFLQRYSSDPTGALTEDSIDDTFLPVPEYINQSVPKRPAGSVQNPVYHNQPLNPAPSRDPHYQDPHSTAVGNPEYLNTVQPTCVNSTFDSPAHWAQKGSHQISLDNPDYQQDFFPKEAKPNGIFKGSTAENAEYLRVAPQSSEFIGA
Chain of EGFRWT (P00533 25-1210): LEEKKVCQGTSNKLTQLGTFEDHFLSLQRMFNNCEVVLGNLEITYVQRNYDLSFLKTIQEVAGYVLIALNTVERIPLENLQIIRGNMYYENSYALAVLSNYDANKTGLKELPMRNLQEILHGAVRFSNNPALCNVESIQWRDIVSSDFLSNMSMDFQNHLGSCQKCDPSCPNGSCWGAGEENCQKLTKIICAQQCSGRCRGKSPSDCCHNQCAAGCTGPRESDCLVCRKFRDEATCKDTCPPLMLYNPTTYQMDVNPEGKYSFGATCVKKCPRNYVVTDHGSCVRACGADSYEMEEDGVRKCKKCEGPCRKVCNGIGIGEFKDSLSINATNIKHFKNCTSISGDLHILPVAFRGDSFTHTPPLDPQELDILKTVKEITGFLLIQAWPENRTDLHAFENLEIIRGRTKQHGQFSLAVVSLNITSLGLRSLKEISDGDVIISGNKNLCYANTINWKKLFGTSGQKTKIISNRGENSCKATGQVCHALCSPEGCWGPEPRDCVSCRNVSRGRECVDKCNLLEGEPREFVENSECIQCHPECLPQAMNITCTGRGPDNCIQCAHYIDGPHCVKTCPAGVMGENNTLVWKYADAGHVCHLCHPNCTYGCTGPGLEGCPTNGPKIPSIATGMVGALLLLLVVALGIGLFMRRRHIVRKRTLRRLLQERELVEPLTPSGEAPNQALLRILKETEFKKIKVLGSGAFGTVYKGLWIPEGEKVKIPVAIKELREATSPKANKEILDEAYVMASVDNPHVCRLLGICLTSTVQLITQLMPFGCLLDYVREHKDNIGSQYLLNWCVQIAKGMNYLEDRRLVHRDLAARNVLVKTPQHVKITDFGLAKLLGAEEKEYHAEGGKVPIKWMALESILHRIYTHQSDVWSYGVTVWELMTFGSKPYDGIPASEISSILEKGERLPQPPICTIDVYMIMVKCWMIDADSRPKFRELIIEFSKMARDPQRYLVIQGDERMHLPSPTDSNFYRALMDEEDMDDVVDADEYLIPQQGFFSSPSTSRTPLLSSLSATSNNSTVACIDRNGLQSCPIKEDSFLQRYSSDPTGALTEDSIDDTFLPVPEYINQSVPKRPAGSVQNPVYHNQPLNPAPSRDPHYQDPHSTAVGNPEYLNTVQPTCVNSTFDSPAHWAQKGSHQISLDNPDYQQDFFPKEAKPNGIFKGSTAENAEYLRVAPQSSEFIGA
Chain of EGFRL861Q (P00533 25-1210 L861Q): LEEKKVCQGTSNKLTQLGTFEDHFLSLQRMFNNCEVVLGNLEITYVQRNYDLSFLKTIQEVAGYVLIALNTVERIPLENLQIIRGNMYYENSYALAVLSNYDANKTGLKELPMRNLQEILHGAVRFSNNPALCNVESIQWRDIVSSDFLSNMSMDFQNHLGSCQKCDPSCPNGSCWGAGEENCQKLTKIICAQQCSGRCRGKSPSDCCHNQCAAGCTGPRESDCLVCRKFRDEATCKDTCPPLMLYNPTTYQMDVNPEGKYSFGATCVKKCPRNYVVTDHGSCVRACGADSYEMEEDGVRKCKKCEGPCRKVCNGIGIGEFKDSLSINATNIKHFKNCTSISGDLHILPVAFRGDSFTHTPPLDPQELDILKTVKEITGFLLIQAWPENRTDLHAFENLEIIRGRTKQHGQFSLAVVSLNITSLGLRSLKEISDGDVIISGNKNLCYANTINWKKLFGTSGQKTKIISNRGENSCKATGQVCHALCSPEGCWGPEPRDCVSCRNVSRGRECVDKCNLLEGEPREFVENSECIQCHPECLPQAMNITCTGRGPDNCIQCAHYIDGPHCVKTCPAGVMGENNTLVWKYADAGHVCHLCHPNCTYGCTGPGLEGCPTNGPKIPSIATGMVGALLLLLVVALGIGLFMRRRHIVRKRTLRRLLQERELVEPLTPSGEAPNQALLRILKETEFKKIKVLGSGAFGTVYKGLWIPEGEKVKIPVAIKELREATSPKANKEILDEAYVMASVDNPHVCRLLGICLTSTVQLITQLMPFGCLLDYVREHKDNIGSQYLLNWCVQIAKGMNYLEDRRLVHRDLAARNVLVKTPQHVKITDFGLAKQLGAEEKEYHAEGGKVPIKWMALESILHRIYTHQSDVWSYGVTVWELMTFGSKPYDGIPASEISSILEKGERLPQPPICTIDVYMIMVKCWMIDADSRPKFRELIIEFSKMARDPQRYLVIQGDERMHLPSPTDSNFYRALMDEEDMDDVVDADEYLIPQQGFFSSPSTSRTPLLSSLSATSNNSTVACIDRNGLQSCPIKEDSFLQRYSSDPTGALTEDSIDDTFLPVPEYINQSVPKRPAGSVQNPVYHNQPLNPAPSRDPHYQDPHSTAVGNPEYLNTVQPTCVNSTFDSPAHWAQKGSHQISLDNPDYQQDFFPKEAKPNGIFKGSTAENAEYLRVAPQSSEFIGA
Chain of EGFRL858R (P00533 25-1210 L858R): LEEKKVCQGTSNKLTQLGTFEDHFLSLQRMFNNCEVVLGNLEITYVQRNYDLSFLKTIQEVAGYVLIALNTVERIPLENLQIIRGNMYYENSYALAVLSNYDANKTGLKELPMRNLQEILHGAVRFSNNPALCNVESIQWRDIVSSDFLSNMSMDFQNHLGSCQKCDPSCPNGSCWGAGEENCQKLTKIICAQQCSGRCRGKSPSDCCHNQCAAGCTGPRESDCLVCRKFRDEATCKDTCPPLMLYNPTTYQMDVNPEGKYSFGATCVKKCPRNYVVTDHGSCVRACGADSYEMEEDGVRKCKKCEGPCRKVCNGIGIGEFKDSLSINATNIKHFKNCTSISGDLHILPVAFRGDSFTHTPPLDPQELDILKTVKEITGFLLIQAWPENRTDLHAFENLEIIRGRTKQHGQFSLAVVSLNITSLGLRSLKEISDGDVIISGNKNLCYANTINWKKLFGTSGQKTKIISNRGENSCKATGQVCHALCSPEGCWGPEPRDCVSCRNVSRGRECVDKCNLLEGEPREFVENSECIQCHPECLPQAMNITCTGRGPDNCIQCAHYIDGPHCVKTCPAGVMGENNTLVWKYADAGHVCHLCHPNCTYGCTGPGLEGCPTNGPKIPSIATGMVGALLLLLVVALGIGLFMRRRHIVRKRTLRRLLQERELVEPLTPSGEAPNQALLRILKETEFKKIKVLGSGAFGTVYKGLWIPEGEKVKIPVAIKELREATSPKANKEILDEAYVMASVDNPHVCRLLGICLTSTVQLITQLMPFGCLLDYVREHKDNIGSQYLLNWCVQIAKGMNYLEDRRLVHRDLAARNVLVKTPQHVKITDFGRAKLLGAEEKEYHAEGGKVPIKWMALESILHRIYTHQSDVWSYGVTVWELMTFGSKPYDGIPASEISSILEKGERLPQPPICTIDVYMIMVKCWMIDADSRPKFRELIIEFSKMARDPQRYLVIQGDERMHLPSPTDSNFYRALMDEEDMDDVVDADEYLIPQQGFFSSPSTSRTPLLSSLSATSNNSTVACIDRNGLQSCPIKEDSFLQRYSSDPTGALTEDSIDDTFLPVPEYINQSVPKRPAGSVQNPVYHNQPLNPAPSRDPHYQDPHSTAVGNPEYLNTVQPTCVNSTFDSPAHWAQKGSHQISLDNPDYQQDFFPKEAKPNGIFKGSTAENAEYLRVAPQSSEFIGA

C=CC(=O)Nc1ccc(F)c(N2C(=O)N(Cc3ccccc3)Cc3cnc(Nc4ccc(N5CCN(C)CC5)cc4OC)nc32)c1 [C-EGF41, N-(3-(3-benzyl-7-(2-methoxy-4-(4-methylpiperazin-1-yl)phenylamino)-2-oxo-3,4-dihydropyrimido[4,5-d]pyrimidin-1(2H)-yl)-4-fluorophenyl)acrylamide]
≤ 10 nM: all assays above

C=CC(=O)Nc1cccc(N2C(=O)N(c3ccccc3C)Cc3cnc(Nc4ccc(N5CCN(C)CC5)cc4OC)nc32)c1 [C-EGF39, N-(3-(7-(2-methoxy-4-(4-methylpiperazin-1-yl)phenylamino)-2-oxo-3-o-tolyl-3,4-dihydropyrimido[4,5-d]pyrimidin-1(2H)-yl)phenyl)acrylamide]
≤ 10 nM: all assays above

C=CC(=O)Nc1cccc(N2C(=O)N(c3ccccc3)Cc3cnc(Nc4ccc(N5CCN(C)CC5)cc4OC)nc32)c1 [C-EGF27, N-(3-(7-(2-methoxy-4-(4-methylpiperazin-1-yl)phenylamino)-2-oxo-3-phenyl-3,4-dihydropyrimido[4,5-d]pyrimidin-1(2H)-yl)phenyl)acrylamide]
≤ 10 nM: all assays above

C=CC(=O)Nc1cccc(N2C(=O)N(c3ccc(-c4ccccc4)cc3)Cc3cnc(Nc4ccc(N5CCN(C)CC5)cc4OC)nc32)c1 [C-EGF30, N-(3-(3-(biphenyl-4-yl)-7-(2-methoxy-4-(4-methylpiperazin-1-yl)phenylamino)-2-oxo-3,4-dihydropyrimido[4,5-d]pyrimidin-1(2H)-yl)phenyl)acrylamide]
≤ 10 nM: all assays above

C=CC(=O)Nc1cccc(N2C(=O)N(c3ccc(OCc4ccccc4)cc3)Cc3cnc(Nc4ccc(N5CCN(C)CC5)cc4OC)nc32)c1 [C-EGF32, N-(3-(3-(4-(benzyloxy)phenyl)-7-(2-methoxy-4-(4-methylpiperazin-1-yl)phenylamino)-2-oxo-3,4-dihydropyrimido[4,5-d]pyrimidin-1(2H)-yl)phenyl)acrylamide]
≤ 10 nM: all assays above

C=CC(=O)Nc1cccc(N2C(=O)N(c3cccc(C#N)c3)Cc3cnc(Nc4ccc(N5CCN(C)CC5)cc4OC)nc32)c1 [C-EGF36, N-(3-(3-(3-cyanophenyl)-7-(2-methoxy-4-(4-methylpiperazin-1-yl)phenylamino)-2-oxo-3,4-dihydropyrimido[4,5-d]pyrimidin-1(2H)-yl)phenyl)acrylamide]
≤ 10 nM: all assays above

C=CC(=O)Nc1cccc(N2C(=O)N(Cc3ccccc3)Cc3cnc(Nc4ccc(N5CCN(C)CC5)cc4OC)nc32)c1 [C-EGF29, N-(3-(3-benzyl-7-(2-methoxy-4-(4-methylpiperazin-1-yl)phenylamino)-2-oxo-3,4-dihydropyrimido[4,5-d]pyrimidin-1(2H)-yl)phenyl)acrylamide]
≤ 10 nM: all assays above

C=CC(=O)Nc1cccc(N2C(=O)N(c3ccc(F)c(Cl)c3)Cc3cnc(Nc4ccc(N5CCN(C)CC5)cc4OC)nc32)c1 [C-EGF38, N-(3-(3-(3-chloro-4-fluorophenyl)-7-(2-methoxy-4-(4-methylpiperazin-1-yl)phenylamino)-2-oxo-3,4-dihydropyrimido[4,5-d]pyrimidin-1(2H)-yl)phenyl)acrylamide]
≤ 10 nM: all assays above
